Laboratory results reported in patent US20160022751A1, “NOVEL COMPOSITION FOR TREATING ALZHEIMER'S DISEASE AND IMPROVING COGNITIVE FUNCTION OF ALZHEIMER'S PATIENTS” (GANGNEUNG-WONJU NATIONAL UNIVERSITY INDUSTRY ACADEMY …, priority 2014, published 2016).

Tests used:
clathrin = experiment: Clathrin mRNA expression in HMO6 human microglial cells (qPCR); type: cell-based; settings: Aβ42 (5 μM) and/or Rg3 (2.5 or 5 μg/ml), 24 h (FIG. 15C)
Description: (§1) FIG. 15 is a graph showing a change in the expression of caveolin-1, caveolin-2, clathrin, neprilysin (NEP), insulin-degrading enzyme (IDE) according to treating Aβ and/or ginsenoside Rg3 to HMO6 human microglial cells. HMO6 cells were plated on 35 mm cell culture plates or chamber slides and Aβ42 (5 μM) and/or Rg3 (2.5 or 5 μg/ml) were treated for 24 h. Then, the mRNA expression was determined by quantitative RT-PCR. The expression of caveolin (A-B), clathrin (C) which are endocytosis-related genes and NEP (D) and IDE (E) which are genes encoding Aβ-degrading enzymes were compared depending on the presence or absence of Rg3/Aβ42. The results are shown as mean±SD. * P<0.05, ** P<0.01, *** P<0.001. […]
(§2) Total RNA extracts from HMO6 cells or perfused brain tissue were prepared using the Trizol method (Invitrogen). cDNA was synthesized from RNA by reverse transcription of 1 μg total RNA using the Improm-II reverse transcription system (Promega, Wis., USA) and oligo dT primers in a total volume of 20 μl. […] Relative sample expression levels were calculated using Rotor-Gene 6000 Series Software 1.7 and were expressed relative to β-actin for mice or glyceraldehyde 3-phosphate dehydrogenase for HMO6 cells and corrected for between-run variability. Data for the experimental samples are expressed as a percentage of the internal control gene. […]

HMO6 cells = experiment: Uptake of FITC-labeled Aβ42 in HMO6 cells (live-cell imaging); type: cell-based, human; settings: HMO6 cells pre-treated with Rg3 5 μg/ml for 20 h, after 30 min, persisted for 6 h (FIG. 21)
Description: The stably transfected HM06.hSRA cells prepared in Example 5-5 were plated into 96-well plates at 5000 cells/well to analyze Aβ uptake. […] […] Fluorescence intensities represented the number of cells (count/mm^2) over the time to quantify cells with FITC-labeled Aβ42 peptides. Aβ42 uptake was calculated using the following equation (FIG. 21):

caveolin1 = experiment: Caveolin1 mRNA expression in HMO6 human microglial cells (qPCR); type: cell-based; settings: Aβ42 (5 μM) and/or Rg3 (2.5 or 5 μg/ml), 24 h (FIG. 15A-B)
Description: as §1, §2

SRA = SRA mRNA expression in HMO6 human microglial cells (qPCR); type: cell-based; settings: Rg3-treated HMO6 cells (FIG. 14)
Description: HMO6 human microglial cell line was kindly provided by Dr. SU Kim (Chung-Ang University, Korea). HMO6 cells were grown in Dulbecco's Modified Eagle's Medium (DMEM) (Hyclone, USA) supplemented with 10% fetal bovine serum, 100 U/ml penicillin, and 100 μg/ml streptomycin (Invitrogen, USA). Cultures were maintained under 5% CO2 at 37° C. in tissue culture flasks. Cells were grown to >90% confluency and subjected to no more than 20 cell passages. Medium was changed every 2-3 days. Subconfluent cells were harvested and seeded at a density of 5×10^5 cells or 5×10^6 cells in poly-L-lysine-coated 35-mm or 60-mm culture plates. […]
as §2

CC(C)=CCC[C@](C)(O)[C@H]1CC[C@]2(C)[C@@H]1[C@H](O)C[C@@H]1[C@@]3(C)CC[C@H](O[C@@H]4O[C@H](CO)[C@@H](O)[C@H](O)[C@H]4O[C@@H]4O[C@H](CO)[C@@H](O)[C@H](O)[C@H]4O)C(C)(C)[C@@H]3CC[C@]12C [ginsenoside Rg3]
clathrin-mediated Aβ42 endocytosis (clathrin mRNA) (clathrin): promoted Aβ42 uptake into HMO6 cells via a caveolin1 and clathrin-mediated endocytic mechanism
Aβ42 uptake (HMO6 cells): increased Aβ42 uptake significantly
caveolin1-mediated Aβ42 endocytosis (caveolin mRNA) (caveolin1): promoted Aβ42 uptake into HMO6 cells via a caveolin1 and clathrin-mediated endocytic mechanism
SRA mRNA expression (SRA): dose-dependently increased
